Reference: patent publication US6160004A, “C-10 carbon-substituted artemisinin-like trioxane compounds having antimalarial, antiproliferative and antitumor activities” (priority 1998, dated 2000)
In brackets after ≈: the same amount, converted by molar mass. Read-outs that look alike come from different tables or passages of the source. Blank lines part the entries; values can stand above or below the compound they belong to.

Tests used:
[1] = system: chloroquine-sensitive P. falciparum (NF54); assay: In vitro antimalarial activity ([3H]hypoxanthine incorporation); format: cell-based
malaria = assay: In vivo antimalarial activity; design: species or system rodents
[2] = system: murine keratinocyte cell line PE; assay: Growth inhibition of murine keratinocytes (MTT); format: cell-based, murine (SENCAR mice); conditions: 100 nanomolar
Method: To determine the inhibitory effect of the compositions of the present invention on cell proliferation, screening assays were performed on a murine keratinocyte cell line PE. Cell line PE was chosen for its particular sensitivity to the induction of ornithine decarboxylase (ODC) activity by the extensively characterized tumor promoter TPA. […] PE cell culture medium consisted of Eagle's minimal essential medium without calcium chloride (Whittaker Bioproducts, Walkersville, Mass.) supplemented with 8% chelexed fetal calf serum and 1% antibiotic-antimycotic (Gibco BRL) and the addition of CaCl2 to 0.05 mM Ca^++.
MTT [3-(4,5-dimethylthiazol-2-yl)-2,5-diphenyltetraxolium bromide] was purchased from Sigma Chemical Co. (St. Louis, Mo.), and TPA was supplied by L.C. Services (Woburn, Mass.). L-[^14 C]omithine (56 μCi/mol) was from Amersham/Searle Corp. (Arlington Heights, Ill.). Chemical solvents used in all assays of biological activity were of the highest grade commercially available.
Growth Inhibition. Growth curves, shown in FIGS. 1-5, for PE cells treated with calcitriol and the C-10 carbon-substituted dimers 38, 39, 43, 44, 45, 47 and 48, and monomer 27 generated by assay for the reduction of the tetrazolium-based compound MTT, see Charmichael, et al., Cancer Res., 47:936-942 (1987). […] PE cells were seeded at a density of 5,000 cells/well in 50 μL of medium into 96-well microtiter plates. Twelve hours later, the medium was removed, and cells were treated with 100 μL of fresh medium into which the appropriate amount of calcitriol or analog dissolved in dimethyl sulfoxide (DMSO) had been added, with the concentration of DMSO held constant at 0.1%. […] At 24-hour intervals following the initial treatment of the cells with compounds, 0.1 mg (50 μL of a 2 mg/mL solution) of MTT was added to each well. After 4 hours, the MTT was removed and DMSO added to dissolve the blue formazan dye. Using a microtiter plate reader, the A505 was then determined and cell number calculated from blank-subtracted absorbance values.

P. berghei = conditions: cited from earlier work
[3] = system: Ehrlich ascites tumor (EAT) cells; conditions: cited from earlier work
[4] = Water solubility at pH 7.4; format: physicochemical; conditions: pH 7.4, water
Method: Often, solubility in water is a desirable feature of a new drug candidate. Since organic compounds bearing one or more carboxylic acid groups or phenolic groups are usually water soluble at physiological pH, we have prepared a series of 10-carbon-substituted trioxane carboxylic acids via alkene oxidation and ester saponification. Also, bisphenol (34) was prepared by hydrolysis of the corresponding bis-silyl ether.

Stability (hydrolysis) = format: physicochemical
[5] = In vivo acute toxicity testing; conditions: preliminary
[6] = Plasmodium falciparum, chloroquine-sensitive P. falciparum NF54, in vitro
[7] = sc; read-out: ED50 subcutaneous
[8] = sc; read-out: ED90 subcutaneous

SMILES: CO[C@H]1O[C@@H]2O[C@@]3(C)CC[C@H]4[C@H](C)CC[C@@H]([C@H]1C)[C@@]24OO3 [Artemether, reference compound]
in vitro antimalarial potency relative to artemisinin ([1]; P. falciparum NF54): more potent than artemisinin

SMILES: CCN(CC)CCCC(C)Nc1ccnc2cc(Cl)ccc12 (stereo not drawn) [Chloroquine, reference compound]
ED50 (malaria; sc, read-out: ED50 subcutaneous): 1.8 mg/kg | ED90 (malaria; sc, read-out: ED90 subcutaneous): 3.1 mg/kg

SMILES: COc1cc(OC)c(C2OC3OC4(C)CCC5C(C)CCC(C2C)C35OO4)cc1C1OC2OC3(C)CCC4C(C)CCC(C1C)C24OO3 (stereo not drawn) [Dimer 43]
antiproliferative activity relative to calcitriol [2]: at least as antiproliferative as calcitriol

SMILES: CC1CCC2C(C)C(C#Cc3cccc(C#CC4OC5OC6(C)CCC7C(C)CCC(C4C)C57OO6)c3)OC3OC4(C)CCC1C32OO4 (stereo not drawn) [Dimer 44]
antiproliferative activity relative to calcitriol [2]: at least as antiproliferative as calcitriol

SMILES: CC1CCC2C(C)C(C#Cc3ccc(C#CC4OC5OC6(C)CCC7C(C)CCC(C4C)C57OO6)cc3)OC3OC4(C)CCC1C32OO4 (stereo not drawn) [Dimer 45, C-10 p-Diethynylbenzene 10-deoxoartemisinin Dimer]
antiproliferative activity relative to calcitriol [2]: at least as antiproliferative as calcitriol

SMILES: CC1CCC2C(C)C(c3ccc(C4OC5OC6(C)CCC7C(C)CCC(C4C)C57OO6)o3)OC3OC4(C)CCC1C32OO4 (stereo not drawn) [Dimer 47]
antiproliferative activity relative to calcitriol [2]: at least as antiproliferative as calcitriol

SMILES: CC1CCC2C(C)C(c3ccc(C(c4ccccc4)c4ccc(C5OC6OC7(C)CCC8C(C)CCC(C5C)C68OO7)n4C)n3C)OC3OC4(C)CCC1C32OO4 (stereo not drawn) [Dimer 48]
antiproliferative activity relative to calcitriol [2]: at least as antiproliferative as calcitriol

SMILES: C[C@@H]1CC[C@H]2[C@@H](C)C(OC3O[C@@H]4O[C@@]5(C)CC[C@H]6[C@H](C)CC[C@@H]([C@H]3C)[C@@]46OO5)O[C@@H]3O[C@@]4(C)CC[C@@H]1[C@]32OO4 (stereo partly drawn) [II-7]
SD90 (P. berghei; P. berghei-infected mice, parasitemia 90 percent suppressed): 10 mg/kg | in vivo potency relative to artemisinin (P. berghei; P. berghei-infected mice): less potent than artemisinin | IC50 ([3]; MTT, growth inhibition): 1400 nM | cytotoxicity relative to artemisinin (times more cytotoxic) [3]: approximately twenty-two | cytotoxicity relative to dihydroartemisinin (times more cytotoxic) [3]: sixty

SMILES: COc1ccc([C@@H]2O[C@@H]3O[C@@]4(C)CC[C@H]5[C@H](C)CC[C@@H]([C@H]2C)[C@@]35OO4)c(OC)c1 [Monomer 13]
IC50 ([1]; survey data (preliminary), P. falciparum NF54): 8.9 nM

SMILES: COc1ccc(C2OC3OC4(C)CCC5C(C)CCC(C2C)C35OO4)c(OC)c1 (stereo not drawn) [Monomer 13a, 10α-(1',3'-Dimethoxyphenyl)deoxoartemisininin]
in vitro antimalarial potency relative to artemisinin ([1]; P. falciparum NF54): more potent than artemisinin | IC50 [1, 6]: 4.2 nM

SMILES: C=CCOc1ccc([C@@H]2O[C@@H]3O[C@@]4(C)CC[C@H]5[C@H](C)CC[C@@H]([C@H]2C)[C@@]35OO4)c(OCC=C)c1 [Monomer 13b]
IC50 [1, 6]: 6.6 nM

SMILES: C[C@H]1[C@H](c2ccc(O)cc2O)O[C@@H]2O[C@@]3(C)CC[C@H]4[C@H](C)CC[C@@H]1[C@@]24OO3 [Monomer 13d]
solubility [4]: < 3 mM

SMILES: COc1cc(OC)c([C@@H]2O[C@@H]3O[C@@]4(C)CC[C@H]5[C@H](C)CC[C@@H]([C@H]2C)[C@@]35OO4)c(OC)c1 [Monomer 14]
IC50 [1, 6]: 7.8 nM

SMILES: COc1ccc2cc(C3OC4OC5(C)CCC6C(C)CCC(C3C)C46OO5)c(OC)cc2c1 (stereo not drawn) [Monomer 15, 10α-(2',7'-dimethoxynaphth-3'-yl)deoxoartemisinin]
IC50 [1, 6]: 9 nM

SMILES: CC1CCC2C(C)C(c3cccn3C)OC3OC4(C)CCC1C32OO4 (stereo not drawn) [Monomer 16a, 10α-(N-methylpyrrol-2'-yl)deoxoartemisinin]
ED50 (malaria; po; read-out: ED50 oral): 4.5 mg/kg | ED90 (malaria; po; read-out: ED90 oral): 8.5 mg/kg | ED50 (malaria; [7]): 0.7 mg/kg | ED90 (malaria; [8]): 1.2 mg/kg | stability (Stability (hydrolysis)): Hydrolytically stable | in vitro antimalarial potency relative to artemisinin ([1]; P. falciparum NF54): more potent than artemisinin | IC50 [1, 6]: 4.6 nM

SMILES: CC1CCC2C(C)C(c3ccco3)OC3OC4(C)CCC1C32OO4 (stereo not drawn) [Monomer 17a, 10α-(2'-Furyl)-10-deoxoartemisinin]
ED50 (malaria; po; read-out: ED50 oral): 9.5 mg/kg | ED90 (malaria; po; read-out: ED90 oral): 24 mg/kg | ED50 (malaria; [7]): 1.2 mg/kg | ED90 (malaria; [8]): 2 mg/kg | stability (Stability (hydrolysis)): Hydrolytically stable | in vitro antimalarial potency relative to artemisinin ([1]; P. falciparum NF54): more potent than artemisinin | IC50 [1, 6]: 1.4 nM | in vivo acute toxicity testing [5]: relative safety

SMILES: Cc1ccc([C@@H]2O[C@@H]3O[C@@]4(C)CC[C@H]5[C@H](C)CC[C@@H]([C@H]2C)[C@@]35OO4)o1 [Monomer 17b]
ED50 (malaria; po; read-out: ED50 oral): 15.5 mg/kg | ED90 (malaria; po; read-out: ED90 oral): 43 mg/kg | ED50 (malaria; [7]): 0.9 mg/kg | ED90 (malaria; [8]): 2 mg/kg | stability (Stability (hydrolysis)): Hydrolytically stable | IC50 [1, 6]: 5.2 nM | in vivo acute toxicity testing [5]: relative safety

SMILES: C[C@H]1[C@H](c2cccs2)O[C@@H]2O[C@@]3(C)CC[C@H]4[C@H](C)CC[C@@H]1[C@@]24OO3 [Monomer 18]
IC50 [1, 6]: 5.1 nM

SMILES: CC1CCC2C(C)C(c3cn(C)c4ccccc34)OC3OC4(C)CCC1C32OO4 (stereo not drawn) [Monomer 19]
IC50 [1, 6]: 4 nM

SMILES: CC1CCC2C(C)C(C(=O)O)OC3OC4(C)CCC1C32OO4 (stereo not drawn) [Monomer 33]
solubility [4]: 30 mM (≈ 9370 µg/mL)

SMILES: CC1=CO[C@@H]2O[C@@]3(C)CC[C@H]4[C@H](C)CC[C@@H]1[C@@]24OO3 [olefinic compound III]
activity against P. berghei-infected mice (P. berghei): inactive

Other lines, results leading:

IC50 [1, 6]: 16 nM
SMILES: C[C@H]1[C@H](c2cccn2Cc2ccccc2)O[C@@H]2O[C@@]3(C)CC[C@H]4[C@H](C)CC[C@@H]1[C@@]24OO3 [Monomer 16b]

IC50 [1, 6]: 9.1 nM
SMILES: CCOC(=O)Cn1cccc1[C@@H]1O[C@@H]2O[C@@]3(C)CC[C@H]4[C@H](C)CC[C@@H]([C@H]1C)[C@@]24OO3 [Monomer 16d, 10α-(1'-(Ethoxycarbonylmethyl)pyrrol-2'-yl)-10-deoxoartemisinin]

solubility [4]: 10 mM (≈ 3910 µg/mL)
SMILES: CC1CCC2C(C)C(c3cccn3CC(=O)O)OC3OC4(C)CCC1C32OO4 (stereo not drawn) [Monomer 16e]

IC50 [1, 6]: 8.6 nM
SMILES: CCc1ccc([C@@H]2O[C@@H]3O[C@@]4(C)CC[C@H]5[C@H](C)CC[C@@H]([C@H]2C)[C@@]35OO4)o1 [Monomer 17c]

IC50 [1, 6]: 10 nM
SMILES: C[C@H]1[C@H](c2ccc(C(C)(C)C)o2)O[C@@H]2O[C@@]3(C)CC[C@H]4[C@H](C)CC[C@@H]1[C@@]24OO3 [Monomer 17d]
